Here are results for 2 molecules from publication PMC6749294, “Comparison of the Utility of RP-TLC Technique and Different Computational Methods to Assess the Lipophilicity of Selected Antiparasitic, Antihypertensive, and Anti-inflammatory Drugs” (Molecules, 2019).

Details of series [1]: method as in PMID 12972078. The following applies: RP-HPLC, cited from earlier work.
The nature of series [2]: RP-TLC lipophilicity on RP-18F254 plates (Soczewiński-Wachtmeister's and Ościk's equations). The following applies: for RMWO(m) / RMWS(m) / φ0(m): methanol-water mobile phase; for RMWS(a) / RMWS(m): Soczewiński-Wachtmeister's equation; for φ0(a) / φ0(m): φ0 = RMWS/S (Equation 6). The class given is physicochemical. As for the experimental part: The chromatographic analysis was carried on RP-18F254 plates (Art.1.05559, E. Merck, Darmstadt, Germany). The solutions of the investigated compounds were spotted separately onto chromatographic plates using precise micropipettes in a quantity of 5 µL each.
The chromatograms were developed using the mixtures of methanol-water and acetone-water in different volume compositions, as follows:
For antiparasitic drugs: • - the content of methanol was gradually varied by 10% (v/v) from 20–100 (%, v/v), • - the content of acetone was gradually varied by 10% (v/v) from 10–100 (%, v/v).
In the case of antihypertensive drugs, the content of methanol and acetone was gradually varied by 5% (v/v) from 60–100 (%, v/v).
For non-steroidal anti-inflammatory drugs: • - the content of methanol was gradually varied by 5% (v/v) from 60–100 (%, v/v), • - the content of acetone was gradually varied by10% (v/v) from 20–100 (%, v/v).
Next, the chamber was saturated with solvent vapor for 20 min. The chromatograms were developed at room temperature, e.g., 22 ± 1 °C. The development distance was 75 mm. The plates were dried at room temperature, e.g., 22 ± 1 °C. Each chromatogram was done in triplicate.
Densitometric scanning was done using a TLC Scanner 3 with WinCATS 1.4.2 software manufactured by Camag (Muttenz, Switzerland) in the reflectance/absorbance mode.
Densitometric scanning was performed at a respective absorption maximum for the analyzed drugs. The slit dimensions were 10.00 × 0.40 mm, Macro; the optimized optical system was light; the scanning speed was 20 mm/s; the data resolution was 100 μm/step; the measurement type was remission; the measurement mode was absorption; and the optical filter was second order. Each track was scanned three times, and a baseline correction (lowest slope) was used.
In order to determine the lipophilicity parameter based on Soczewiński-Wachtmeister′s procedure, the RF values obtained under the applied chromatographic conditions were converted into RM values according to the expression:(4) RM=log1/RF−1 The linear relationship between RM and the volume content of methanol and acetone in the mobile phase (φ) permits an extrapolation of the calculated RM values to the zero concentration of methanol and acetone in accordance with Soczewiński-Wachtmeister′s Equation (5). […] (5) RM=RMWS−Sφ where: RM is the RM value of the studied compound, RMWS is the RM value extrapolated to zero concentration of methanol and acetone (organic modifier) in the used mobile phase, i.e., methanol-water and acetone-water, respectively, S is the slope of the regression plot (see Supplementary Materials), and φ is the volume fraction of methanol and acetone in the mobile phase. In addition to this, on the basis of the said plot, i.e., Soczewiński-Wachtmeister′s equation, another chromatographic descriptor (φ0) has been calculated according to the following formula (Equation (6)): (6) φ0 = RMWS/S where: RMWS is the chromatographic parameter obtained by using Soczewiński-Wachtmeister’s equation in accordance with Equation (5), and S is the regression slope.
The measurable lipophilicity value expressed as RMWO was determined according to Ościk’s equation [29, 30, 32]:(7) Gxorg=xorg1−xorg/RM−xorgRMorg−1−xorgRMWO=axorg+b where: RM, RMorg, and RMWO are the solute retention factors in the mixed mobile phase, pure organic solvent, and water, respectively; xorg is the molar fraction of the organic solvent in the mobile phase; a and b are constants in the linear correlation between G(xorg) and xorg in the used mobile phase.

Series [3] can be described thus: Prediction of logPexp from φ0(a) with Equation (3). The class given is physicochemical. The following applies: chromatography with acetone-water mobile phase; calculated from φ0(a) with Equation (3); read-out: predicted logPexp. The source says:
The continuation of our lipophilicity study of fifteen biocompounds belonging to the three groups of drugs and the determination of another lipophilicity descriptor, namely φ0, in accordance with Equation (6), allowed us to obtain the two new lipophilicity parameters φ0(a) and φ0(m) for a proper used mobile phase, i.e., acetone-water (a) and methanol-water (m), respectively. What is important is that the calculation of this parameter was possible because a satisfactory linear relationship between both, i.e., the intercept and slope (RMWS and S), in each obtained Soczewiński-Wachtmeister’s equation was achieved (r > 0.98). In order to estimate the utility of these parameters for the prediction of the theoretical as well as experimental parameter of the lipophilicity of a large group of investigated compounds, a correlation matrix between all previously described (thus chromatographic) parameters, as well as the computed and experimental partition coefficient, was done. The results of the correlation analysis indicate that among all φ0 values the best is the one obtained for acetone-water, which is to say φ0(a). […]
This fact confirms the potential utility of the additionally calculated chromatographic parameter φ0(a) to determine the partition coefficient of all examined compounds. It can be very useful in the case of the lack of this value, like for example for the experimental logP of nilvadipine, lacidipine and carprofen. A test was performed on Equation (3) to determine the values of logPexp for the three abovementioned compounds. The results of the predicted logPexp were: 3.65 for nilvadipine, 3.96 for lacidipine and 3.54 for carprofen, respectively. It can be observed that the newly obtained logPexp values are in good agreement with the other previously described theoretical logP of these compounds. They are placed in the similar range of logP values.

The conditions of series [4]: n-octanol-water, cited from earlier work.
On the set-up of series [5]: method as in doi:10.1016/S0021-9673(01)88013-4. The following applies: RP-HPLC; cited from earlier work.
For series [6] the following is noted: cited from earlier work.
A short description of series [7]: Experimental n-octanol-water partition coefficient (logPexp) from literature and databases. The following applies: average of the differing literature logPexp values (± spread). It is filed as physicochemical. The text has this:
The next stage of this paper was a comparison of all obtained RMWS and RMWO parameters calculated using […] equations with theoretical and experimental logP values obtained in an n-octanol-water system.

The conditions of series [8]: cited from earlier work. This is another data set of the same source.
Where [9] appears, read: Ościk's equation, silica gel RP-18F254.
Setting [10] is: acetone-water mobile phase, silica gel RP-18F254.

Like-named read-outs stand apart in the source and are kept apart here.

With `CC(C(=O)O)c1ccc2c(c1)[nH]c1ccc(Cl)cc12` (centres unmarked) [Carprofen, carprofen], the “log kwODS” value in series [1] (ODS column μBondapak C18) is 3.85. In addition, in series [1] (immobilized artificial membrane (IAM.PC.MG) column), the “log kw IAM” value is listed as 1.81. In addition, the “RMWO(m)” value in series [2] (setting [9]) was 2.77. Besides, the “RMWS(a)” value in series [2] (setting [10]) was found to be 2.56. Moreover, in series [2] (silica gel RP-18F254), the “RMWS(m)” value is 2.34. Besides, the “φ0(a)” value in series [2] (acetone-water mobile phase) is 0.754. In addition, the “φ0(m)” value in series [2] is 0.820. The chromatographic logP in series [3] was 3.54.
By logP is commonly meant the decadic logarithm of the partition coefficient of the neutral form, usually between octanol and water. Lower therefore signals a more hydrophilic compound. Consider `Cc1ncc([N+](=O)[O-])n1CCO` [Metronidazole, metronidazole], for which the logPexp entry in series [4] (ref 34) is “–0.22”; in series [4] (ref 35), “–0.10”; in series [4] (ref 36), “–0.02 [36]”; in series [4] (ref 37) it was 0.75 [37]. Besides, in series [5], the “logk'” value is given as “–0.067”. Further, the hydrophilic-hydrophobic properties result in series [6] (according to Hoffmann et al. and Jokipii et al.) is on record as “lipophilic compound that penetrates well into most tissues”; in series [6] (reported by Biagi), “hydrophilic”; in series [6] (reported by Másson et al.) it was “very hydrophilic”. Further, in series [2] (Ościk's equation, acetone-water mobile phase, silica gel RP-18F254), the “RMWO(a)” value stood at 0.94. For the same molecule, the “RMWO(m)” value in series [2] (setting [9]) is 1.21. Also, the “RMWS(a)” value in series [2] (setting [10]) is recorded as 0.65. Further, the “RMWS(m)” value in series [2] (silica gel RP-18F254) worked out at 0.91. Further, the “φ0(a)” value in series [2] (acetone-water mobile phase) is given as 0.398. In series [2], the “φ0(m)” value was 0.564. The logP in series [7] was found to be 0.1. Also, the RMW in series [8] (RP-TLC, Soczewiński-Wachtmeister's equation) is listed as 0.08. Also, in series [8] (stationary phase liquid paraffin), the “RMW(paraffin)” value is 0.60. Also, in series [8] (stationary phase squalene), the “RMW(squalene)” value is on record as 0.53.
